Tests used:
[1] = Foaming properties of aqueous solutions, procedure based upon ASTM D 1173-53; assay type: physicochemical; conditions: for Initial Foam: foam height at completion of addition
Protocol: The foaming properties of aqueous solutions of N-2-ethylhexyl tartarimide (Ex 1), N-decyl tartarimide (Ex 2), N-2-ethylhexyl malimide (Ex 4) and two representative nonionic surfactants, a commercial nonylphenol 15 mole ethoxylate surfactant and a commercial C8 alkyl glucoside surfactant, were examined using a procedure based upon ASTM D 1173-53.
In this test, a 0.1 wt % aqueous mixtures of the tartramides and malimide were prepared, any undissolved solids were filtered off, and the filtrate was added from an elevated glass pipette to a glass receiver containing the same filtrate. Regarding the commercial materials, a 0.1 wt % solution of the surfactant was added from an elevated glass pipette to a glass receiver containing the same solution. The foam height was measured at the completion of the addition (“Initial Foam Height”) and the time required for the foam to dissipate at the air-liquid interface (“Time to 0 Foam”) was recorded. This test provides a comparison between the foaming characteristics of various surfactants. In general, in coatings, inks, adhesives and agricultural formulations, foam is undesirable because it complicates handling and can lead to coating and print defects, and to inefficient application of agricultural materials.

[2] = Equilibrium surface tension of aqueous solutions, Wilhelmy plate method; assay type: physicochemical; conditions: for lowering the equilibrium surface tension of water (in words): aqueous solutions, Table 1 data; for Limiting EST: saturated solutions containing <0.1 wt % in distilled water, filtered, Wilhelmy plate
Protocol: where R^1 is a C5 to C10 alkyl group. […] The Wilhelmy plate method of measuring surface tension is described in L. Wilhelmy's article in Ann. Phys. 1863, 119, 177, which is incorporated by reference.
Saturated solutions containing <0.1 wt % of the materials of Examples 1-4 in distilled water were prepared. After shaking the solutions for ˜24 hours, the undissolved material was removed via filtration. Equilibrium surface tension data were obtained using the Wilhelmy plate method.
The limiting surface tensions represent the lowest surface tensions in water which can be achieved for a given surfactant regardless of the amount of surfactant used and is used to evaluate the effectiveness of a surfactant. Lower surface tensions would allow the elimination of defects upon application of a formulation onto low energy surfaces.

[3] = 0.1 wt % aqueous mixture (filtrate) or solution

Foam after 5 min [1, 3]	Initial Foam [1, 3]	Time to zero foam ([1]; 0.1 wt % aqueous mixture (filtrate) or solution, values given in min)	lowering the equilibrium surface tension of water (in words) [2]	Limiting EST [2]	Time to zero foam ([1]; 0.1 wt % aqueous mixture (filtrate), values printed in sec)	SMILES
0 cm	3.2 cm	3.8 min	particularly effective	32.0 dyne/cm		CCCCCCCCCCN1C(=O)C(O)C(O)C1=O (racemic) [Example 2, N-Decyl DL-tartarimide]
0 cm	0 cm		particularly effective	34.2 dyne/cm	0 min	CCCCC(CC)CN1C(=O)C(O)C(O)C1=O (centres unmarked) [Example 1, N-2-Ethylhexyl tartarimide]
				51.8 dyne/cm		CCCCCCN1C(=O)C(O)C(O)C1=O (racemic) [Example 3, N-hexyl DL-tartarimide]
